Test results reported in patent US9034583B2, “Rapid enzyme-linked immunosorbent assay for detection and identification of pathogens and determination of antimicrobial susceptibility” (priority 2013, dated 2015).

How the values were obtained:
[1] = tested on: N. gonorrheae (Ceftriaxone Sensitive); test: N-Assay antibiotic susceptibility, N. gonorrheae with Ceftriaxone (Example 6); type: cell-based, Neisseria gonorrheae; settings: summary of Table 3
Protocol: (§1) Prior to performing the N-Assay, bacterial cultures were prepared as follows in order to establish the sensitivity of the assay. An inoculum was taken from a stock culture, and plated onto solid phase nutrient agar and incubated overnight at 37° C. E. faecalis, E. faecium (Vancomycin-Resistant Enterococcus, or VRE) and GBS isolates were plated onto colistin and naladixic acid agar, and N. gonorrheae was plated onto chocolate agar. The gonorrheal culture was performed in a CO2 incubator. Following an overnight culture, an isolated colony was selected of each bacterial species, and the isolated colonies were sub-cultured on solid phase for an additional 24 hours to ensure adequate viability was maintained. Following this, isolated cultures were used to inoculate nutrient broth (LIM broth was used for GBS, Fastidious broth with isovitalex 2% v/v for N. gonorrheae, and BHI broth was used for E. faecalis, E. faecium). A 0.5 McFarland was prepared for each bacterial species, and these were then diluted serially down to 10^−3 in nutrient broth and the OD630 immediately was determined. For each dilution, aliquots were obtained and agar plates were inoculated. The agar plates then were incubated at 37° C. for 24 hours, and the number of colony forming units (CFU) was determined for each bacterial species at each dilution. This was used to generate a standard curve, so that future dilutions when prepared could be developed with known concentrations of bacteria. […] A similar curve was generated for each bacteria studied.
(§2) Antibodies against selected bacteria were diluted 1:100 in coating buffer (carbonate bicarbonate buffer), and 100 μl were placed in microtiter wells and allowed to stand overnight at 4° C. The following day, wells were washed with PBS TWEEN 20 three times, and then blocked with 200 μl of STARTINGBLOCK for 30 minutes at room temperature. Following blocking, wells were washed three times with PBS TWEEN 20, and plates were either stored at 4° C. with a sterile cover placed over them for later use, or used immediately.
(§3) To determine antibiotic susceptibility of the four strains of bacteria, a 0.5 Mcfarland was prepared in nutrient broth and serially dilutions were established. The dilutions were incubated overnight for 18-24 hours at 37° C. (in a CO2 incubator for N. gonorrheae) with specific antibiotics. Parallel dilutions were prepared of each bacterium, in the presence and absence of specific antibiotics, as follows: (1) for E. faecalis, E. faecium, Penicillin G was added in varying concentrations, and as these concentrations were held constant, the bacterial concentration was diluted out; (2) the same parameters were set for GBS with the antibiotic clindamycin; and (3) the same parameters were set for N. gonorrheae with the antibiotic ceftriaxone.
(§4) Following overnight incubation in the presence or absence of the selected antibiotics, 100 μl of the bacterial suspensions were placed into previously coated wells, and plates were allowed to stand at room temperature for 15 minutes. After washing with PBS TWEEN 20 three times, 100 μl of HRP-conjugated antibody directed against the specific bacteria was added in a 1:100 dilution, and allowed to stand at room temperature for 7 minutes. Wells were washed three times with PBS TWEEN 20, and bound antibody was detected by the addition of 100 μl of TMB substrate. OD450) was read after allowing the plate to stand for 3 minutes at room temperature and stopping the reaction with stop solution (KPL).
(§5) After adding stop solution, wells were read at OD450. […] Alternatively, wells were determined to be positive if they turned yellow after addition of the stop solution, if a plate reader was not available.
(§6) These studies were repeated for E. faecalis, E. faecium and N. gonorrheae. For E. faecalis and E. faecium, Penicillin G was used to distinguish between E. faecalis and E. faecium, as E. faecium is resistant to Penicillin G. For N. gonorrheae, the antibiotic used was ceftriaxone.

[2] = tested on: N. gonorrheae (Ceftriaxone Resistant); test: as above; type: cell-based, Neisseria gonorrheae; settings: With Ceftriaxone Present, 2 μg/ml
Protocol: as §1, §2, §3, §4, §5, §6

[3] = tested on: Clindamycin Resistant Strain (GBS 11276); test: N-Assay antibiotic susceptibility, GBS with Clindamycin (Example 6); type: cell-based, Group B Streptococcus (GBS); settings: for Detection of GBS: With Clindamycin Present, 4 μg/ml, 18 hour incubation in nutrient broth, resistant strain GBS 11276
Protocol: as §1, §2, §3
as §4, with “After washing with PBS TWEEN 20 three times, 100 μl of HRP-conjugated antibody directed against the specific bacteria was added in a 1:100 dilution, and allowed to stand at room temperature for 7 minutes.” left out
After adding stop solution, wells were read at OD450. […] Alternatively, wells were determined to be positive if they turned yellow after addition of the stop solution, if a plate reader was not available. […]

[4] = tested on: penicillin-resistant (Pen-R) Strain 31426; test: Simultaneous identification of N. gonorrheae and antimicrobial susceptibility (Example 4); type: cell-based
Protocol: (§7) Two strains of N. gonorrheae, penicillin-sensitive (Pen-S) Strain 1279 and penicillin-resistant (Pen-R) Strain 31426, were cultured overnight on Gc agar. A 0.5 McFarland was prepared immediately before wells were to be inoculated, and the two strains were each diluted to a concentration of 10^8 in FB. The bacteria-containing FB for each strain was split into four tubes, in which a different concentration of penicillin was added to each of the tubes of the two strains: 2.0 μg/ml, 1.0 μg/ml, 0.5 μg/ml, and buffer alone as a negative control. Microtiter wells were coated with 100 μl of a 1:200 dilution of rabbit polyclonal antibody directed against N. gonorrheae, and allowed to stand at 4 degrees Celsius overnight. […] Following blocking, wells were again washed three times with PBS. At this stage, the plates were either used immediately, or stored at 4 degrees Celsius for later use. Upon proceeding with the assay, 100 μl of the 10^8 dilution of the two strains of N. gonorrheae were placed in individual wells. The wells were shaken gently on a plate stirrer at room temperature for 15 minutes. Next, wells were washed three times with PBS, and 100 μl of an HRP-conjugated rabbit polyclonal antibody (1:50 dilution in PBS) directed against N. gonorrheae was added to the wells and incubated at room temperature for 5 minutes. Wells were washed three times with PBS, and then bound antibody was detected by the addition of 100 μl of TMB substrate. OD450) was read after allowing the plate to stand for three minutes at room temperature and stopping the reaction with stop solution (KPL). Negative controls consisted of the same preceding steps, but the addition of bacteria was omitted.

[5] = tested on: penicillin-sensitive (Pen-S) Strain 1279; test: as above; type: cell-based; settings: penicillin 0.5, 1.0, 2.0 μg/ml, 10^8 bacteria
Protocol: as §7

[6] = tested on: Enterococcus faecalis (Penicillin Sensitive); test: N-Assay antibiotic susceptibility, Enterococcus with Penicillin G (Example 6); type: cell-based; settings: for Detection of Enterococcus faecalis: With Penicillin Present, 8 μg/ml Penicillin G, 18 hour incubation in nutrient broth
Protocol: as §1, §2, §3, §4, §5, §6

[7] = tested on: Enterococcus faecium (Penicillin Resistant, i.e., VRE); test: as above; type: cell-based; settings: for Detection of Enterococcus faecium: With Penicillin Present, 8 μg/ml Penicillin G, 18 hour incubation in nutrient broth
Protocol: as §1, §2, §3, §4, §5, §6

## CO/N=C(\C(=O)N[C@@H]1C(=O)N2C(C(=O)O)=C(CSc3nc(=O)c(=O)[nH]n3C)CS[C@H]12)c1csc(N)n1 [Ceftriaxone, ceftriaxone]
[1]
  N-Assay result of wells containing N. gonorrheae: negative
[2]; 18 hour incubation in nutrient broth, 0.1 CFU/ml
  Detection of Neisseria gonorrheae: +
[2]; 18 hour incubation in nutrient broth, 1 CFU/ml
  Detection of Neisseria gonorrheae: +
[2]; 18 hour incubation in nutrient broth, 10 CFU/ml
  Detection of Neisseria gonorrheae: +
[2]; 18 hour incubation in nutrient broth, 100 CFU/ml
  Detection of Neisseria gonorrheae: +
[2]; 18 hour incubation in nutrient broth, 1,000 CFU/ml
  Detection of Neisseria gonorrheae: +
[2]; 18 hour incubation in nutrient broth, 10,000 CFU/ml
  Detection of Neisseria gonorrheae: +

## CCC[C@@H]1C[C@@H](C(=O)N[C@@H]([C@H]2O[C@H](SC)[C@H](O)[C@@H](O)[C@H]2O)[C@H](C)Cl)N(C)C1 [Clindamycin, clindamycin]
[3]; 10 CFU/ml
  Detection of GBS: +
[3]; 100 CFU/ml
  Detection of GBS: +
[3]; 1,000 CFU/ml
  Detection of GBS: +
[3]; 10,000 CFU/ml
  Detection of GBS: +
[3]; summary of Table 1, incubated 24 hours at 37° C. with Clindamycin
  lowest dilution at which GBS resistant to Clindamycin was positive: 100 bacteria/ml

## CC1(C)S[C@@H]2[C@H](NC(=O)Cc3ccccc3)C(=O)N2[C@H]1C(=O)O [Penicillin G, penicillin G]
[4]; penicillin 0.5, 1.0, 2.0 μg/ml, 10^8 bacteria, Pen-R Strain 31426
  OD450 signal of bound N. gonorrheae between concentrations of penicillin: did not significantly vary
[4]; wells containing Pen-R strain 31426 with penicillin
  growth by turbidity at OD600: increasing turbidity
[5]
  OD450 signal of bound N. gonorrheae with increasing concentrations of penicillin: progressively decreasing positive signal
[6]; Table 2, with Penicillin G
  N-Assay result of wells containing E. faecalis: negative
[6]; 100,000 CFU/ml
  Detection of Enterococcus faecalis: +
[6]; 1,000,000 CFU/ml
  Detection of Enterococcus faecalis: +
[6]; 10,000,000 CFU/ml
  Detection of Enterococcus faecalis: +
[7]; Table 2, with Penicillin G
  lowest dilution at which E. faecium was positive: 100 bacteria/ml
[7]; 1 CFU/ml
  Detection of Enterococcus faecium: +
[7]; 10 CFU/ml
  Detection of Enterococcus faecium: +
[7]; 100 CFU/ml
  Detection of Enterococcus faecium: +
[7]; 1,000 CFU/ml
  Detection of Enterococcus faecium: +
[7]; 10,000 CFU/ml
  Detection of Enterococcus faecium: +
[7]; 100,000 CFU/ml
  Detection of Enterococcus faecium: +
[7]; 1,000,000 CFU/ml
  Detection of Enterococcus faecium: +
[7]; 10,000,000 CFU/ml
  Detection of Enterococcus faecium: +
